Drawing on US6362370B1, “Wood preservatives” (Lonza AG, priority 1996, dated 2002), this text covers Penetration depth and Service life for nine substances.

Data set [1] in a line: Penetration depth in sapwood blocks after immersion in aqueous QAC solution. Format: physicochemical. Conditions: sapwood blocks 2.5 cm×5.0 cm×12 cm, immersion in 5% strength aqueous solution, 24 hours at 20° C. The protocol:
Fine sapwood blocks of dimensions 2.5 cm×5.0 cm×12 cm were impregnated with the QAC shown in the table by immersion in an aqueous solution of in each case 5% strength. The immersion time was a standard 24 hours (at 20° C.).

Data set [2] has as its system fungus-infested soil (forest soil). Put plainly: Soil burying method according to Schwammkeller: service life of impregnated beechwood bars. Particulars: beechwood bars 1 cm×1 cm×40 cm, immersion in 0.5% strength solution for 24 hours, buried in fungus-infested soil, time until flexural breaking strength has fallen to 25% of the initial value. The protocol: Bars of beechwood (1 cm×1 cm×40 cm) were impregnated by immersion in a 0.5% strength solution of the SAC for 24 hours and then tested by the soil burying method according to Schwammkeller. For this, treated and untreated timbers were buried in fungus-infested soil (forest soil). The service life here is defined as the time after which the flexural breaking strength has fallen to 25% of the initial value of (untreated) comparison timbers of the same dimensions and type of wood.

“N,N-didecyl-N-methyl-N-(polyoxyethyl)ammonium [Example 9]”: in data set [1], the Penetration depth is on record as 6-8 mm.

As to “N,N-didecyl-N-methyl-N-(polyoxyethyl)ammonium [Example V3, reference compound]”, the Penetration depth in data set [1] was 2-3 mm. Also, the Service life in data set [2] is 4 months.

As for “N,N-didecyl-N-methyl-N-(polyoxyethyl)ammonium [Example V4, reference compound]”, the Penetration depth in data set [1] is on record as 3-4 mm.

Take “N,N-didecyl-N-methyl-N-(polyoxyethyl)ammonium hydroxyacetate [Example 8]”: the Penetration depth in data set [1] is 7-10 mm.

On to “N,N-didecyl-N-methyl-N-(polyoxyethyl)ammonium lactate [Example 7]”, for which the Penetration depth in data set [1] is recorded as 7-8 mm. This substance displayed a Service life in data set [2] greater than 9 months.

Take “N,N-dimethyl-N-benzyl-N-(coconut alkyl)ammonium [Example 5]”: the Penetration depth in data set [1] was 6-8 mm. In data set [2] (listed as 10), this substance yielded a Service life greater than 9 months.

With “N,N-dimethyl-N-benzyl-N-(coconut alkyl)ammonium [Example 6]”, in data set [1], the Penetration depth is given as 7-8 mm.

On to “N,N-dimethyl-N-benzyl-N-(coconut alkyl)ammonium [Example V1, reference compound]”, for which the Penetration depth in data set [1] was 1-3 mm. The Service life in data set [2] (listed as V5) turned out to be 3 months.

Turning to “N,N-dimethyl-N-benzyl-N-(coconut alkyl)ammonium [Example V2, reference compound]”, the Penetration depth in data set [1] was 2-3 mm.
